Reference: ChEMBL document CHEMBL1201862, “PubChem BioAssay data set” (2004)
pIC50: −log10 of the molar value. The source made the active and inactive calls.

How the values were obtained:
[1] = target: T1, Tyrosine-protein phosphatase non-receptor type 7 (Homo sapiens, UniProt P35236); format: functional
T1 sequence (P35236 whole entry): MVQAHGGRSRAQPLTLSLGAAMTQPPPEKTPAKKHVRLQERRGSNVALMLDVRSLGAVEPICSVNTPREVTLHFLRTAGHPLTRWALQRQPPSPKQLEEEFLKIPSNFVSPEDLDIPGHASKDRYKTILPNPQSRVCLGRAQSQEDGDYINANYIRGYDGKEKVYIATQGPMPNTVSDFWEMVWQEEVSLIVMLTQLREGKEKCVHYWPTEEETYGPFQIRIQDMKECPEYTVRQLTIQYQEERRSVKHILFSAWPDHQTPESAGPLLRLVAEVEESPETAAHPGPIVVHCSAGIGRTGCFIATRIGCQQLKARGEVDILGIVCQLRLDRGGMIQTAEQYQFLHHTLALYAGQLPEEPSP

[2] = target: T2, Tyrosine-protein phosphatase non-receptor type 22 (Homo sapiens, UniProt Q9Y2R2); format: functional
T2 sequence (Q9Y2R2 whole entry): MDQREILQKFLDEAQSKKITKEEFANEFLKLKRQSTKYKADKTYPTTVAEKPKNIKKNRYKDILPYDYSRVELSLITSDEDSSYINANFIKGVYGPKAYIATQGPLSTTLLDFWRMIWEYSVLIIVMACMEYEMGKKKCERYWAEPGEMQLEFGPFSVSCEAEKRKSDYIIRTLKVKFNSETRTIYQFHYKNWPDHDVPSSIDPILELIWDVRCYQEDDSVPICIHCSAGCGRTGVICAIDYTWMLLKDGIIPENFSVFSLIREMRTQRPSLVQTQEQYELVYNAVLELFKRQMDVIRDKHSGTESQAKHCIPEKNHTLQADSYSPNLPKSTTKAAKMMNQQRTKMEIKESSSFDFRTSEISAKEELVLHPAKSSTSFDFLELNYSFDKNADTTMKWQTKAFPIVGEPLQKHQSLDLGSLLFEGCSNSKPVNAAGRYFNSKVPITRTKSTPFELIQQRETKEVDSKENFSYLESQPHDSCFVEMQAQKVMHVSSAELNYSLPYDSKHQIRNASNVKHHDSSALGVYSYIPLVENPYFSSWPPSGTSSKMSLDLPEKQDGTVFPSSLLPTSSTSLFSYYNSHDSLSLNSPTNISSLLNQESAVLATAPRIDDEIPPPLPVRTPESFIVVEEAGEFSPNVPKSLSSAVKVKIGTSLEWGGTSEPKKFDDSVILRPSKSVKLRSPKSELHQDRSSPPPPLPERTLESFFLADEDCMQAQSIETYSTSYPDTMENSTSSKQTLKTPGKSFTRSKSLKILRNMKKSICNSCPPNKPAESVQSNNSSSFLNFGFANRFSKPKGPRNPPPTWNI

[3] = target: T2, Tyrosine-protein phosphatase non-receptor type 22; format: functional; remark: listed apart in the source
[4] = target: T3, Delta-type opioid receptor (Homo sapiens, UniProt P41143); test: HTS Image-Based Screen for Antagonists of the DOR Receptor. [Related pubchem assays (depositor defined):AID1777, AID1785, AID1786, AID2133]; format: functional
T3 sequence (P41143 whole entry): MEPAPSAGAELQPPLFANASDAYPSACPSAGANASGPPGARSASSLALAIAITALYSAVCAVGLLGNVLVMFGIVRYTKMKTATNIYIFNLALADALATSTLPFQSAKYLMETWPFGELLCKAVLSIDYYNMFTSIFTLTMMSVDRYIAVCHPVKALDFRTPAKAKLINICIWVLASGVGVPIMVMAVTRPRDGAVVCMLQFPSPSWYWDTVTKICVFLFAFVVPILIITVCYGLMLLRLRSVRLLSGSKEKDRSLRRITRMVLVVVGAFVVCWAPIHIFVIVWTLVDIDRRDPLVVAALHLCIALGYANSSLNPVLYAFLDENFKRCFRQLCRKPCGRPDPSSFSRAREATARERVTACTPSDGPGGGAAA

[5] = luciferase reporter signal suppression in cells – H4 neuroglioma cells, luminescence, dose response (AID 1990); format: functional, cell-based
[6] = target: Mu-type opioid receptor (Homo sapiens, UniProt P35372); test: HTS Image-Based Screen for Agonists of the MOR Receptor. [Related pubchem assays (depositor defined):AID1777, AID1785, AID1786, AID2133]; format: functional;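 also: imaging of beta-arrestin GFP recruitment into spots after receptor activation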
Chain of Mu-type opioid receptor (P35372 whole entry): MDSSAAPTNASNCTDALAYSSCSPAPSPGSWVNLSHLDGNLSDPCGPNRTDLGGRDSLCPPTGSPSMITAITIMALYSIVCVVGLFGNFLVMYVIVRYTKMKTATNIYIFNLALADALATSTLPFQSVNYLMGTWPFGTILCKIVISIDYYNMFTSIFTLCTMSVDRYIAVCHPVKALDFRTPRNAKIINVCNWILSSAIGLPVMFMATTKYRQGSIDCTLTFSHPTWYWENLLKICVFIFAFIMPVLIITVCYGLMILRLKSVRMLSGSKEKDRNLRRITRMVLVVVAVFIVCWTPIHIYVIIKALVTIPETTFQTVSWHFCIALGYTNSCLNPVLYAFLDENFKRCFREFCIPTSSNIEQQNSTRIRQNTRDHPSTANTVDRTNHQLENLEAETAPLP

[7] = target: T3, Delta-type opioid receptor; test: HTS Image-Based Screen for Agonists of the DOR Receptor. [Related pubchem assays (depositor defined):AID1777, AID1786, AID2133]; format: functional
[8] = Luminescence Cell-Based Dose Response HTS to Identify Inhibitors of 5'UTR Stem-Loop Driven Prion Protein mRNA Translation in H4 Neuroglioblastoma Cells. [Related pubchem assays: 1827 (Project Summary), 1813 (Primary HTS)]; format: functional
[9] = alpha-synuclein stem-loop luciferase translation blockers – H4 neuroglioma cells, luminescence, confirmation (AID 1988); format: functional, cell-based
[10] = Trypanosoma cruzi growth suppression in host cells – NIH3T3 host cells, beta-gal luminescence, confirmation (AID 2044); format: functional, cell-based;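 also: intracellular parasites grown in NIH/3T3 mouse fibroblasts as host cells; luminescent beta-galactosidase reporter signal from transgenic T. cruzi replicating inside host cells; inhibitors lower the luminescence signal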
[11] = target: T4, Kappa-type opioid receptor (Homo sapiens, UniProt P41145); format: functional
T4 sequence (P41145 whole entry): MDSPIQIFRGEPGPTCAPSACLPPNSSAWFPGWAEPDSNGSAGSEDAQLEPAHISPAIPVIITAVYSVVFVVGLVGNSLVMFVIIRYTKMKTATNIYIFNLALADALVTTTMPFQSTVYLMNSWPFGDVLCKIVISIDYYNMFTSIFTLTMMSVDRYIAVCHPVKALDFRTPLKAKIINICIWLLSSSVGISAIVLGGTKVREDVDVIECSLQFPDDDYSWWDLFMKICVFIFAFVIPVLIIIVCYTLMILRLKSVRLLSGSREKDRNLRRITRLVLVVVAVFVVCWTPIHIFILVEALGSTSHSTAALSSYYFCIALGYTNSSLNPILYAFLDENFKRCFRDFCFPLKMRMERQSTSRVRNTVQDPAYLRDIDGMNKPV

[12] = NIH3T3 cell viability loss – ATP luminescence, mouse fibroblasts, counter-screen, dose response (AID 2010); format: functional, cell-based;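 also: cells exposed to compound for about 90 hours before reading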
[13] = target: Beta-galactosidase (Escherichia coli, UniProt Q8VNN2); format: functional
Chain of Beta-galactosidase (Q8VNN2 whole entry): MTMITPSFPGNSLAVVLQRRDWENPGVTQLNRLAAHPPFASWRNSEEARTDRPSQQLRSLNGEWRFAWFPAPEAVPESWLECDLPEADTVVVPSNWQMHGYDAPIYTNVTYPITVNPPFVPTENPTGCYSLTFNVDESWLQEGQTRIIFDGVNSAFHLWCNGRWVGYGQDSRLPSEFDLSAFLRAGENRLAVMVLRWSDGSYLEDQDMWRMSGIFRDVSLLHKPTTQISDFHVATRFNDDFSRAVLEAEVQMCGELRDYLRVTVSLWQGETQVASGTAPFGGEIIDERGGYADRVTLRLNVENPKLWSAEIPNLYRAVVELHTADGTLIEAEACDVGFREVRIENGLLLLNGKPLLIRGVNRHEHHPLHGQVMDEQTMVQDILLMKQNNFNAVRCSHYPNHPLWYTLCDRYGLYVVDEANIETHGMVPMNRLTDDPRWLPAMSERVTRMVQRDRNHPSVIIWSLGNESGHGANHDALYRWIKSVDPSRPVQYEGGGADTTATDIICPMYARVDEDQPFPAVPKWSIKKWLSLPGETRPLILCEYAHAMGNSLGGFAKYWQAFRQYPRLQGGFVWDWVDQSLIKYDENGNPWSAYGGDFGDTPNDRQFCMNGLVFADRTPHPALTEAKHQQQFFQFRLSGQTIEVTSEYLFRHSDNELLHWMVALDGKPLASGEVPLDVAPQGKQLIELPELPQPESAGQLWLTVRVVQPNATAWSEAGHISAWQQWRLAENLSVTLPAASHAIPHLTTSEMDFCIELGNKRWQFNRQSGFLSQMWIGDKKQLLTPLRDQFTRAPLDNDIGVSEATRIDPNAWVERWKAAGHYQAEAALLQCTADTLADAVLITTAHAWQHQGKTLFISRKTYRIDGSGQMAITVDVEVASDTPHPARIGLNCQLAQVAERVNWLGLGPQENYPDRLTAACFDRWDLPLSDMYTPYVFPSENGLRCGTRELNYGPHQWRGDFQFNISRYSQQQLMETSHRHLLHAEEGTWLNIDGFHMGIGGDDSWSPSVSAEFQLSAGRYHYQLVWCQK

[14] = target: T4, Kappa-type opioid receptor; format: functional; remark: listed apart in the source
[15] = target: G-protein coupled receptor 55 (Homo sapiens, UniProt Q9Y2T6); test: selective activators of receptor GPR55 – imaging, U2OS cells, beta-arrestin-GFP redistribution, primary screen (AID 1961); format: functional
Chain of G-protein coupled receptor 55 (Q9Y2T6 whole entry): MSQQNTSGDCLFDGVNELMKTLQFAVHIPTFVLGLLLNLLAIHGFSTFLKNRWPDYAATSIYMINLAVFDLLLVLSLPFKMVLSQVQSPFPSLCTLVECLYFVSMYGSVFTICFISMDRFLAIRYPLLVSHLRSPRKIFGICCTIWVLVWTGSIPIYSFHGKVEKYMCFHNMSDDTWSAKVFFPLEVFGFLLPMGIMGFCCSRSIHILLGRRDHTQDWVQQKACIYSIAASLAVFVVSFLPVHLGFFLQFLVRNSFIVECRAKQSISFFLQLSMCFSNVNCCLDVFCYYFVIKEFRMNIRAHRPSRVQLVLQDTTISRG

[16] = target: T5, Heat shock factor protein 1 (Mus musculus, UniProt P38532); test: enhancement of HSF1-driven luciferase signal – cell-based, NIH3T3, luminescence, dose retest, confirmation (AID 435004); format: functional;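 also: stress induced by proteasome inhibitor MG132 added 30 min after compound; luciferase reporter driven by HSF1 response element in NIH3T3 cells; actives raise luminescence as potentiators of the MG132 stress response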
T5 sequence (P38532 whole entry): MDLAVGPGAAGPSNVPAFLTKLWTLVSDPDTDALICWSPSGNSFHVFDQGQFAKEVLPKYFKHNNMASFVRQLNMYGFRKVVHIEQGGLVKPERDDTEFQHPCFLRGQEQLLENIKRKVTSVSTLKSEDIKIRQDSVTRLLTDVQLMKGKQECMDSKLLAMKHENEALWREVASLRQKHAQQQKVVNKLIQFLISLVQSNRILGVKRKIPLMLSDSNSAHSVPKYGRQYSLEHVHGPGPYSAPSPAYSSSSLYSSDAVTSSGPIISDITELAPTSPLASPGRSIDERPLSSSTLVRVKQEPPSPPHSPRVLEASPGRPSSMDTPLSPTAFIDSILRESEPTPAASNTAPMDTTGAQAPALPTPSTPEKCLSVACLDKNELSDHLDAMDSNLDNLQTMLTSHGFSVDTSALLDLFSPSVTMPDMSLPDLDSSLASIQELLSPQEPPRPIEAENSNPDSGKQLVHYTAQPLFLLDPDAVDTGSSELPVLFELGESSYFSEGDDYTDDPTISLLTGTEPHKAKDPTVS

[17] = target: T6, Microphthalmia-associated transcription factor (Homo sapiens, UniProt O75030); test: reducers of TRPM1 reporter luminescence, concentration series – cell-based, SK-MEL-5, cherry-picked, set 3, MITF inhibitor project, dose response (AID 493073); format: functional;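 also: SK-MEL-5 melanoma cells with luciferase driven by the MITF target TRPM1 promoter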
T6 sequence (O75030 whole entry): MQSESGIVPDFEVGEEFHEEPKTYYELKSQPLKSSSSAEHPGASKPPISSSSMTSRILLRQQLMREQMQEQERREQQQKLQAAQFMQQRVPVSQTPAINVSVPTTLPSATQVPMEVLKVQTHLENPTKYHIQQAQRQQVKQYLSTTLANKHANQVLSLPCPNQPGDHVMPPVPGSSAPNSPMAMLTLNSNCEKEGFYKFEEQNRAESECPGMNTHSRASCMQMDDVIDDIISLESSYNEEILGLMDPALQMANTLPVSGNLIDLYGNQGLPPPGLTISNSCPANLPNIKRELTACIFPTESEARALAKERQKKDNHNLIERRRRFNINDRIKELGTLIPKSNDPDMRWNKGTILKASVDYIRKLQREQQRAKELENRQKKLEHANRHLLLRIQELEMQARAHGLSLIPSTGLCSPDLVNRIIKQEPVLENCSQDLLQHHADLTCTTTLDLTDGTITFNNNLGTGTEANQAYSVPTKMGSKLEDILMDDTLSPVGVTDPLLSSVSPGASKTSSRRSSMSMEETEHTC

| Structure (SMILES) | IC50 [1] | IC50 [2] | IC50 [3] | IC50 [4] | EC50 [5] | EC50 [6] | EC50 [7] | EC50 [8] | EC50 [9] | EC50 [10] | IC50 [11] | EC50 [12] | EC50 [13] | pIC50 [14] | EC50 [15] | EC50 [16] | AC50 [17] |
| --- | --- | --- | --- | --- | --- | --- | --- | --- | --- | --- | --- | --- | --- | --- | --- | --- | --- |
| CCOC(=O)c1cnc2c(Cl)c(Cl)ccc2c1NCCN1CCOCC1 | > 79.4 µM (inactive) | > 79.4 µM (inactive) | > 79.4 µM (inactive) |  |  |  |  |  |  |  |  |  |  |  |  |  |  |
| COc1ccc(C(=O)/C=C/C(=O)N(CC(=O)NC2CCCCC2)Cc2ccccc2)c(O)c1 |  |  |  | > 32 µM (inactive) | > 60 µM (not active) | > 32 µM (inactive) | > 32 µM (inactive) | > 120 µM (not active) | 9.06 µM (active) | 1.64 µM (active) | 4.97 µM (active) | > 60 µM (inconclusive) | > 31.5 µM (inactive) | 5.08 | > 32 µM (inactive) | > 260 µM (inactive) | 5.24 µM (active) |
